Laboratory results reported in the supplement of paper PMC10307832.

Experiments:
Test in all cases: relative viability (nuclei count vs DMSO), 5 days (fraction); higher = more cells survive
[1] = compound: C/C(=N\NC(=S)N1CCC1)/C2=CC=CC=N2 + O=C(CCCCCCC(=O)Nc1ccccc1)NO [Vorinostat] (partner 1 µM)
In short: (§1)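 A single step with final 0.05% Triton X-100, 1% formaldehyde and 1 ug/ml Hoechst fixed the cells and stained nuclei 5 days after treatment. Lung cancer cell lines in 1536-well plates had been treated by pin tool the day after seeding with one drug alone or a fixed anchor-drug dose plus five library-drug doses (not always all listed) in √10 steps, and nuclei were counted on 4× images. Relative viability is the ratio of nuclei in treated wells to nuclei in vehicle wells, taken as the median of duplicate plates.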

[2] = compound: C/C(=N\NC(=S)N1CCC1)/C2=CC=CC=N2 + C[C@]1(O)C[C@@H](c2nc(-c3ccc4ccc(-c5ccccc5)nc4c3)c3c(N)nccn32)C1 [Linsitinib] (partner 1 µM)
In short: as §1

[3] = compound: C/C(=N\NC(=S)N1CCC1)/C2=CC=CC=N2 + CC1(C)CCC(c2ccc(Cl)cc2)=C(CN2CCN(c3ccc(C(=O)NS(=O)(=O)c4ccc(N[C@H](CCN5CCOCC5)CSc5ccccc5)c(S(=O)(=O)C(F)(F)F)c4)cc3)CC2)C1 [Navitoclax] (partner 0.5 µM)
In short: as §1

[4] = compound: C/C(=N\NC(=S)N1CCC1)/C2=CC=CC=N2 + Cc1nc(NC(=O)N2CCC[C@H]2C(N)=O)sc1-c1ccnc(C(C)(C)C(F)(F)F)c1 [Alpelisib] (partner 2 µM)
In short: as §1

Cell Line: HCC-15
- relative viability ([1]; first compound 0.05 µM): 0.204
- relative viability ([1]; first compound 0.1581 µM): 0.275
- relative viability ([1]; first compound 0.5 µM): 0.145
- relative viability ([1]; first compound 1.581 µM): 0.139
- relative viability ([1]; first compound 5 µM): 0.116
- relative viability ([2]; first compound 0.05 µM): 0.237
- relative viability ([2]; first compound 0.1581 µM): 0.416
- relative viability ([2]; first compound 0.5 µM): 0.103
- relative viability ([2]; first compound 1.581 µM): 0.102
- relative viability ([2]; first compound 5 µM): 0.0909
- relative viability ([3]; first compound 0.05 µM): 0.198
- relative viability ([3]; first compound 0.1581 µM): 0.392
- relative viability ([3]; first compound 0.5 µM): 0.0695
- relative viability ([3]; first compound 1.581 µM): 0.092
- relative viability ([3]; first compound 5 µM): 0.0784
- relative viability ([4]; first compound 0.05 µM): 0.191
- relative viability ([4]; first compound 0.1581 µM): 0.453
- relative viability ([4]; first compound 0.5 µM): 0.0722
- relative viability ([4]; first compound 1.581 µM): 0.0749
- relative viability ([4]; first compound 5 µM): 0.0746

Cell Line: NCI-H2405
- relative viability ([1]; first compound 0.05 µM): 0.241
- relative viability ([1]; first compound 0.1581 µM): 0.267
- relative viability ([1]; first compound 0.5 µM): 0.252
- relative viability ([1]; first compound 1.581 µM): 0.217
- relative viability ([1]; first compound 5 µM): 0.222
- relative viability ([2]; first compound 0.05 µM): 0.193
- relative viability ([2]; first compound 0.1581 µM): 0.207
- relative viability ([2]; first compound 0.5 µM): 0.31
- relative viability ([2]; first compound 1.581 µM): 0.225
- relative viability ([2]; first compound 5 µM): 0.223
- relative viability ([3]; first compound 0.05 µM): 0.0935
- relative viability ([3]; first compound 0.1581 µM): 0.0799
- relative viability ([3]; first compound 0.5 µM): 0.114
- relative viability ([3]; first compound 1.581 µM): 0.256
- relative viability ([3]; first compound 5 µM): 0.246
- relative viability ([4]; first compound 0.05 µM): 0.179
- relative viability ([4]; first compound 0.1581 µM): 0.198
- relative viability ([4]; first compound 0.5 µM): 0.276
- relative viability ([4]; first compound 1.581 µM): 0.202
- relative viability ([4]; first compound 5 µM): 0.199

Cell Line: LXF-289
- relative viability ([1]; first compound 0.05 µM): 0.22
- relative viability ([1]; first compound 0.1581 µM): 0.185
- relative viability ([1]; first compound 0.5 µM): 0.188
- relative viability ([1]; first compound 1.581 µM): 0.151
- relative viability ([1]; first compound 5 µM): 0.104
- relative viability ([2]; first compound 0.05 µM): 0.508
- relative viability ([2]; first compound 0.1581 µM): 0.325
- relative viability ([2]; first compound 0.5 µM): 0.248
- relative viability ([2]; first compound 1.581 µM): 0.226
- relative viability ([2]; first compound 5 µM): 0.131
- relative viability ([3]; first compound 0.05 µM): 0.431
- relative viability ([3]; first compound 0.1581 µM): 0.361
- relative viability ([3]; first compound 0.5 µM): 0.248
- relative viability ([3]; first compound 1.581 µM): 0.193
- relative viability ([3]; first compound 5 µM): 0.108
- relative viability ([4]; first compound 0.05 µM): 0.539
- relative viability ([4]; first compound 0.1581 µM): 0.307
- relative viability ([4]; first compound 0.5 µM): 0.278
- relative viability ([4]; first compound 1.581 µM): 0.147
- relative viability ([4]; first compound 5 µM): 0.141

Cell Line: CAL-12T
- relative viability ([1]; first compound 0.05 µM): 0.0882
- relative viability ([1]; first compound 0.1581 µM): 0.112
- relative viability ([1]; first compound 0.5 µM): 0.127
- relative viability ([1]; first compound 1.581 µM): 0.101
- relative viability ([1]; first compound 5 µM): 0.114
- relative viability ([2]; first compound 0.05 µM): 0.167
- relative viability ([2]; first compound 0.1581 µM): 0.165
- relative viability ([2]; first compound 0.5 µM): 0.13
- relative viability ([2]; first compound 1.581 µM): 0.16
- relative viability ([2]; first compound 5 µM): 0.142
- relative viability ([3]; first compound 0.05 µM): 0.168
- relative viability ([3]; first compound 0.1581 µM): 0.139
- relative viability ([3]; first compound 0.5 µM): 0.171
- relative viability ([3]; first compound 1.581 µM): 0.144
- relative viability ([3]; first compound 5 µM): 0.118
- relative viability ([4]; first compound 0.05 µM): 0.148
- relative viability ([4]; first compound 0.1581 µM): 0.146
- relative viability ([4]; first compound 0.5 µM): 0.126
- relative viability ([4]; first compound 1.581 µM): 0.127
- relative viability ([4]; first compound 5 µM): 0.121

Cell Line: COR-L23
- relative viability ([1]; first compound 0.05 µM): 0.11
- relative viability ([1]; first compound 0.1581 µM): 0.099
- relative viability ([1]; first compound 0.5 µM): 0.0957
- relative viability ([1]; first compound 1.581 µM): 0.0832
- relative viability ([1]; first compound 5 µM): 0.0963
- relative viability ([2]; first compound 0.05 µM): 0.129
- relative viability ([2]; first compound 0.1581 µM): 0.11
- relative viability ([2]; first compound 0.5 µM): 0.106
- relative viability ([2]; first compound 1.581 µM): 0.0712
- relative viability ([2]; first compound 5 µM): 0.0637
- relative viability ([3]; first compound 0.05 µM): 0.108
- relative viability ([3]; first compound 0.1581 µM): 0.111
- relative viability ([3]; first compound 0.5 µM): 0.0885
- relative viability ([3]; first compound 1.581 µM): 0.077
- relative viability ([3]; first compound 5 µM): 0.0905
- relative viability ([4]; first compound 0.05 µM): 0.113
- relative viability ([4]; first compound 0.1581 µM): 0.123
- relative viability ([4]; first compound 0.5 µM): 0.097
- relative viability ([4]; first compound 1.581 µM): 0.0558
- relative viability ([4]; first compound 5 µM): 0.0865

Cell Line: NCI-H1755
- relative viability ([1]; first compound 0.05 µM): 0.294
- relative viability ([1]; first compound 0.1581 µM): 0.226
- relative viability ([1]; first compound 0.5 µM): 0.223
- relative viability ([1]; first compound 1.581 µM): 0.233
- relative viability ([1]; first compound 5 µM): 0.225
- relative viability ([2]; first compound 0.05 µM): 0.528
- relative viability ([2]; first compound 0.1581 µM): 0.959
- relative viability ([2]; first compound 0.5 µM): 0.194
- relative viability ([2]; first compound 1.581 µM): 0.22
- relative viability ([2]; first compound 5 µM): 0.215
- relative viability ([3]; first compound 0.05 µM): 0.321
- relative viability ([3]; first compound 0.1581 µM): 0.928
- relative viability ([3]; first compound 0.5 µM): 0.142
- relative viability ([3]; first compound 1.581 µM): 0.18
- relative viability ([3]; first compound 5 µM): 0.186
- relative viability ([4]; first compound 0.05 µM): 0.471
- relative viability ([4]; first compound 0.1581 µM): 0.834
- relative viability ([4]; first compound 0.5 µM): 0.172
- relative viability ([4]; first compound 1.581 µM): 0.201
- relative viability ([4]; first compound 5 µM): 0.187

Cell Line: NCI-H1437
- relative viability ([1]; first compound 0.05 µM): 0.32
- relative viability ([1]; first compound 0.1581 µM): 0.334
- relative viability ([1]; first compound 0.5 µM): 0.251
- relative viability ([1]; first compound 1.581 µM): 0.218
- relative viability ([1]; first compound 5 µM): 0.188
- relative viability ([2]; first compound 0.05 µM): 0.114
- relative viability ([2]; first compound 0.1581 µM): 0.122
- relative viability ([2]; first compound 0.5 µM): 0.103
- relative viability ([2]; first compound 1.581 µM): 0.0866
- relative viability ([2]; first compound 5 µM): 0.0787
- relative viability ([3]; first compound 0.05 µM): 0.166
- relative viability ([3]; first compound 0.1581 µM): 0.142
- relative viability ([3]; first compound 0.5 µM): 0.152
- relative viability ([3]; first compound 1.581 µM): 0.109
- relative viability ([3]; first compound 5 µM): 0.0981
- relative viability ([4]; first compound 0.05 µM): 0.114
- relative viability ([4]; first compound 0.1581 µM): 0.127
- relative viability ([4]; first compound 0.5 µM): 0.0974
- relative viability ([4]; first compound 1.581 µM): 0.0875
- relative viability ([4]; first compound 5 µM): 0.0851

Cell Line: NCI-H2085
- relative viability ([1]; first compound 0.05 µM): 0.339
- relative viability ([1]; first compound 0.1581 µM): 0.379
- relative viability ([1]; first compound 0.5 µM): 0.355
- relative viability ([1]; first compound 1.581 µM): 0.288
- relative viability ([1]; first compound 5 µM): 0.305
- relative viability ([2]; first compound 0.05 µM): 0.222
- relative viability ([2]; first compound 0.1581 µM): 0.307
- relative viability ([2]; first compound 0.5 µM): 0.242
- relative viability ([2]; first compound 1.581 µM): 0.223
- relative viability ([2]; first compound 5 µM): 0.215
- relative viability ([3]; first compound 0.05 µM): 0.246
- relative viability ([3]; first compound 0.1581 µM): 0.248
- relative viability ([3]; first compound 0.5 µM): 0.245
- relative viability ([3]; first compound 1.581 µM): 0.248
- relative viability ([3]; first compound 5 µM): 0.281
- relative viability ([4]; first compound 0.05 µM): 0.288
- relative viability ([4]; first compound 0.1581 µM): 0.27
- relative viability ([4]; first compound 0.5 µM): 0.314
- relative viability ([4]; first compound 1.581 µM): 0.282
- relative viability ([4]; first compound 5 µM): 0.272
